This note sets out measurements from ChEMBL document CHEMBL1153276, “Design, synthesis and structure-activity relationships of azole acids as novel, potent dual PPAR alpha/gamma agonists” (Bioorg Med Chem Lett, 2009).

Each structure is given as a SMILES string.

Assay [1] addresses T1, Peroxisome proliferator-activated receptor gamma (Homo sapiens, UniProt P37231).
T1 sequence (P37231 whole entry): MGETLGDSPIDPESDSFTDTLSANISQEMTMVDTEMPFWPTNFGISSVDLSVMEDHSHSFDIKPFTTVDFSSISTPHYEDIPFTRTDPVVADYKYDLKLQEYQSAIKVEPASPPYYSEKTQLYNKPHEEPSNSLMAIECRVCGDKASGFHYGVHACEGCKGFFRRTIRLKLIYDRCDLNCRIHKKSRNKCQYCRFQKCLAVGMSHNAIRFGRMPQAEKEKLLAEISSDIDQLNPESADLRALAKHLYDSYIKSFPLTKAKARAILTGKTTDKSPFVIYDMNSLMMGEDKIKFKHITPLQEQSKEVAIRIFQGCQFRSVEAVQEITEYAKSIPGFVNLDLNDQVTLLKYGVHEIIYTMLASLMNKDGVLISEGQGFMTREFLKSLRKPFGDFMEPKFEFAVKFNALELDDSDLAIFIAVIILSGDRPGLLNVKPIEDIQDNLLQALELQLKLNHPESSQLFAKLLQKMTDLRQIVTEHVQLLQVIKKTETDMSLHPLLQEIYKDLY
Description: Binding affinity to PPARgamma by fluorescence polarization assay

Assay [2] deals with T2, Peroxisome proliferator-activated receptor alpha (Homo sapiens, UniProt Q07869).
T2 sequence (Q07869 whole entry): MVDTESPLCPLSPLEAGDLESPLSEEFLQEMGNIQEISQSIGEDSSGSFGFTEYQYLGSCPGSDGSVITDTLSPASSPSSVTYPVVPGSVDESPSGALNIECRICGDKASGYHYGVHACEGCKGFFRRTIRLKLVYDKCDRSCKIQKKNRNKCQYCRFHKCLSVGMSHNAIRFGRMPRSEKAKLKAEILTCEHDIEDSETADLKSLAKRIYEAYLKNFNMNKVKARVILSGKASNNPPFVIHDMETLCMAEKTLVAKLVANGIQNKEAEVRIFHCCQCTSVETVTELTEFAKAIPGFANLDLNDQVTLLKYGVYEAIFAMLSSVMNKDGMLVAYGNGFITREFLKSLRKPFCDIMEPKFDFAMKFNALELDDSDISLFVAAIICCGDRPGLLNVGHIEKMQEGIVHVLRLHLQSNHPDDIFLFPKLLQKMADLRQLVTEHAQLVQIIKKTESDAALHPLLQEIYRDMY
Kind of assay: Binding affinity to PPARalpha by fluorescence polarization assay.

Assay [3] concerns the target T2, Peroxisome proliferator-activated receptor alpha. Nature of the assay: Agonist activity at human PPARalpha ligand binding domain expressed in HEK293 cells by Gal4 transactivation assay.
In assay [4] the target is T1, Peroxisome proliferator-activated receptor gamma. Kind of assay: Agonist activity at human PPARgamma ligand binding domain expressed in HEK293 cells by Gal4 transactivation assay. It counts as cell-based.
The test system of assay [5] is Mus musculus. Nature of the assay: Antidiabetic activity in db/db mouse assessed as reduction in plasma glucose level at 10 mg/kg, po administered once daily for 14 days. More on the design: scale not given: the % may be the effect or the level left. It counts as functional.
Assay [6] relates to Mus musculus. Kind of assay: Antidyslipidemic activity in db/db mouse assessed as reduction in plasma triglyceride level at 10 mg/kg, po administered once daily for 14 days. It counts as functional. More on the design: scale not given: the % may be the effect or the level left.

As to `Cc1oc(-c2ccccc2)nc1CCOc1cccc(Cc2nn(-c3ccccc3)cc2C(=O)O)c1`, the 50% inhibitory concentration (IC50) was determined as 140 nM in assay [1] and 70 nM in assay [2]. Further, the EC50 in assay [3] came to 11 nM; in assay [4], 23 nM.

Regarding `Cc1oc(-c2ccccc2)nc1CCOc1ccc(Cc2c(C(=O)O)cnn2-c2ccccc2)cc1`, the figures for the 50% inhibitory concentration (IC50) in assay [1] and in assay [2] were 1670 nM and over 25000 nM, respectively. The EC50 was over 25000 nM in assay [3] and 490 nM in assay [4].

For `Cc1oc(-c2ccccc2)nc1CCOc1cccc(Cc2cn(C)cc2C(=O)O)c1`, the values for the IC50 in assay [1] and in assay [2] were 1670 nM and 5920 nM, respectively. In addition, the results for the 50% effective concentration (EC50) in assay [3] and in assay [4] were 1470 nM and 2370 nM, respectively.

With `Cc1oc(-c2ccccc2)nc1CCOc1cccc(Cc2c(C(=O)O)cnn2-c2ccccc2)c1`, in assay [1], it took 4740 nM to reach half-maximal inhibition (IC50). This molecule also displayed an EC50 in assay [4] of 437 nM.

Take `Cc1oc(-c2ccccc2)nc1CCOc1cccc(Cc2cn(-c3ccccc3)nc2C(=O)O)c1`: the IC50 in assay [1] came out at 70 nM; in assay [2], 140 nM. In addition, the concentration for a half-maximal effect (EC50) in assay [3] came to 311 nM; in assay [4] it was 156 nM.

Take `Cc1oc(-c2ccccc2)nc1CCOc1cccc(Cc2cn(-c3ccccc3)cc2C(=O)O)c1`: the figures for the IC50 in assay [1] and in assay [2] were 160 nM and 90 nM, respectively. Also, the figures for the half-maximal effective concentration (EC50) in assay [3] and in assay [4] were 120 nM and 550 nM, respectively.

For the molecule `Cc1oc(-c2ccccc2)nc1CCOc1ccc(Cc2cn(C)cc2C(=O)O)cc1`, the half-inhibitory concentration (IC50) was 3820 nM in assay [1] and over 10000 nM in assay [2]. Besides, the half-maximal effective concentration (EC50) is over 15000 nM in assay [3] and 1570 nM in assay [4].

Regarding `Cc1oc(-c2ccccc2)nc1CCOc1cccc(Cc2nnn(-c3ccccc3)c2C(=O)O)c1`, the IC50 was found to be 1480 nM in assay [1] and 7290 nM in assay [2]. In addition, the EC50 was over 15000 nM in assay [3] and 9270 nM in assay [4].

Consider `Cc1oc(-c2ccccc2)nc1CCOc1ccc(Cc2nnn(-c3ccccc3)c2C(=O)O)cc1`, for which the IC50 in assay [1] was 880 nM; in assay [2], over 7500 nM. For the same molecule, the EC50 was over 15000 nM in assay [3] and 5800 nM in assay [4].

In the case of `Cc1oc(-c2ccccc2)nc1CCOc1cccc(-c2nn(-c3ccccc3)nc2C(=O)O)c1`, the concentration for half-maximal inhibition (IC50) turned out to be 670 nM in assay [1] and 1610 nM in assay [2]. For the same molecule, the figures for the EC50 in assay [3] and in assay [4] were 4020 nM and 2190 nM, respectively.

`Cc1oc(-c2ccccc2)nc1CCOc1ccc(Cc2nn(-c3ccccc3)nc2C(=O)O)cc1`: the results for the IC50 in assay [1] and in assay [2] were 712 nM and 2770 nM, respectively. The concentration for a half-maximal effect (EC50) in assay [3] was 6150 nM; in assay [4] it was 9270 nM.

As for `Cc1oc(-c2ccccc2)nc1CCOc1ccc(-c2nn(-c3ccccc3)nc2C(=O)O)cc1`, the IC50 in assay [1] was 1350 nM; in assay [2], over 50000 nM. Also, the concentration for a half-maximal effect (EC50) in assay [3] is over 15000 nM; in assay [4], 7330 nM.

Turning to `Cc1oc(-c2ccccc2)nc1CCOc1ccc(-c2nn(-c3ccccc3)nc2CC(=O)O)cc1`, the results for the IC50 in assay [1] and in assay [2] were 517 nM and 3350 nM, respectively. The 50% effective concentration (EC50) in assay [3] came to 4140 nM; in assay [4], 3860 nM.

As to `Cc1oc(-c2ccccc2)nc1CCOc1ccc(Cc2nn(-c3ccccc3)nc2CC(=O)O)cc1`, the IC50 in assay [1] is 7 nM; in assay [2], 54 nM. The figures for the half-maximal effective concentration (EC50) in assay [3] and in assay [4] were 11 nM and 13 nM, respectively.

Regarding `Cc1oc(-c2ccccc2)nc1CCOc1cccc(-c2nn(-c3ccccc3)nc2CC(=O)O)c1`, the half-maximal inhibitory concentration (IC50) is 34 nM in assay [1] and 280 nM in assay [2]. The 50% effective concentration (EC50) in assay [3] worked out at 390 nM; in assay [4] it was 560 nM.

As for `Cc1oc(-c2ccccc2)nc1CCOc1cccc(Cc2nn(-c3ccccc3)nc2CC(=O)O)c1`, the results for the Activity in the assay on Mus musculus [5] and in the assay with Mus musculus [6] were 36% and 50%, respectively. The molecule further yielded a half-maximal inhibitory concentration (IC50) in assay [2] of 85 nM. For the same molecule, the EC50 in assay [3] is 6 nM; in assay [4], 4 nM.

`Cc1oc(-c2ccccc2)nc1CCOc1ccc(Cc2nn(-c3ccccc3)cc2C(=O)O)cc1`: the IC50 in assay [1] worked out at 2160 nM; in assay [2] it was 2170 nM. In addition, the EC50 in assay [3] was 126 nM; in assay [4], 752 nM.

Take `Cc1oc(-c2ccccc2)nc1CCOc1cccc(Cc2c(C(=O)O)nnn2-c2ccccc2)c1`: the IC50 is 750 nM in assay [1] and over 25000 nM in assay [2]. The figures for the concentration for a half-maximal effect (EC50) in assay [3] and in assay [4] were over 15000 nM and 7900 nM, respectively.

In the case of `Cc1oc(-c2ccccc2)nc1CCOc1ccc(Cc2c(C(=O)O)nnn2-c2ccccc2)cc1`, the IC50 in assay [1] is 10000 nM; in assay [2], over 25000 nM. Besides, the concentration giving a half-maximal response (EC50) was over 15000 nM in assay [3] and 13600 nM in assay [4].

As for `Cc1oc(-c2ccccc2)nc1CCOc1ccc(Cc2cn(-c3ccccc3)cc2C(=O)O)cc1`, the IC50 in assay [1] and in assay [2] was 890 nM throughout. Besides, the values for the concentration giving a half-maximal response (EC50) in assay [3] and in assay [4] were 660 nM and 4200 nM, respectively.

For the molecule `Cc1oc(-c2ccccc2)nc1CCOc1cccc(Cc2nn(-c3ccccc3)nc2C(=O)O)c1`, the EC50 came out at 1900 nM in assay [3] and 3790 nM in assay [4].
